According to patent publication US20100092465A1, “TREATMENT OF GRAFT-VERSUS-HOST DISEASE” (priority 2006, published 2010):

Key:
[1] = molecular target: T1, human ligand (single-chain IL27) (Homo sapiens, UniProt Q14213+Q8NEV9); test: SPR kinetics of soluble receptor with human IL27 ligand; conditions: binding with human ligand; gp130 not included
T1 construct: amino-terminal peptide tag (N)
T1 sequence (Q14213+Q8NEV9 with tags, fused parts or gaps): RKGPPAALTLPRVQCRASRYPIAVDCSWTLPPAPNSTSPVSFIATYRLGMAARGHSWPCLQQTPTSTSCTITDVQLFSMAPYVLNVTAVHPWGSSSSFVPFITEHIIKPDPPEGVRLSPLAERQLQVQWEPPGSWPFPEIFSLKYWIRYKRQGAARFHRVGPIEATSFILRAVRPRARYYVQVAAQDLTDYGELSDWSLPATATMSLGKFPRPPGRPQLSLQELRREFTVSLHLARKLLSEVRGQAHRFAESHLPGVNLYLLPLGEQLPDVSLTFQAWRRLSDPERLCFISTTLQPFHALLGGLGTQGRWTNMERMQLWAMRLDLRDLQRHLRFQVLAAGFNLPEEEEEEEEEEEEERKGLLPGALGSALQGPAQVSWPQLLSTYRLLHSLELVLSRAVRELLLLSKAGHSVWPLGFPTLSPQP
Method: Kinetic rate and affinity constant values for the mouse (IL27RAm(mFc1), Example 3) and human (IL27RA-Fc5, Example 4) soluble receptors were obtained by surface plasmon resonance (SPR) using an automated instrument (BIACORE 3000; Biacore International AB, Uppsala, Sweden). The mouse soluble receptor was tested against mouse ligand (lot A1418F), and the human soluble receptor was tested against both mouse (A1426F) and human (A1534F) ligands. For determination of the kinetic rate constants for the receptor-ligand interactions, the gp130 molecule was not included as part of the receptor complex.
The IL27 ligands used in this study were single-chain molecules comprising EBI3 connected by its C-terminus to the N-terminus of IL-27 p28 via a polypeptide linker. Each of the ligands included an amino-terminal peptide tag.
For the mouse IL27RA study, the soluble receptor was captured onto the chip surface by an isotype-specific anti-mouse Fc antibody (obtained from Jackson ImmunoResearch Laboratories, Inc., West Grove, Pa.) covalently immobilized to the chip (BIACORE CM5 chip) using the standard amine coupling protocol specified by the instrument manufacturer. […]
All data were assessed using software provided with the instrument (BIACORE Evaluation software v. 3.2). […]

[2] = system: acute graft-vs-host disease; test: Mouse model of acute graft-vs-host disease; assay type: in vivo
Method: Efficacy of IL-27 antagonists was assayed in a mouse model of acute graft-vs-host disease (Durie et al., J. Clin. Invest. 94:1333-1338, 1994). Parental mice (C57BL/6; n=12) were euthanized, and their spleens were collected. The pooled spleens were smashed using two glass slides to dissociate splenic cells. Lysis buffer was added to the splenocyte suspension to remove red blood cells. The cells were washed in RPMI 1640 (10% FBS) medium and resuspended in an appropriate amount of PBS to make a cell concentration of 300 million cells/ml. Protein treatments were administered by intraperitoneal injection every other day beginning on day-1 and continuing until day 15. Dexamethasone (DEX) was administered by injection daily on days 0 through 6. On day 0, 75 million donor splenic lymphocytes from B6 mice (250 .micro.l per injection) were injected intravenously into recipient mice (C57BL/6×DBA/2 F1 (BDF1); n=10 per group) mice. Mice were monitored 3 times a week for changes in body weight and any signs of moribundity. Mice that lost >20% of their initial body weight were euthanized. Otherwise, mice were sacrificed 18 days after the cell transfer. Spleens were collected, and a CTL-specific lysis assay using P815 cells was performed as a quantitative measurement of acute GVHD. Furthermore, spleens were stained for T- and B-cell markers, including MHC class I markers (H2^b and H2^d) to look at donor/recipient cell ratio (acute GVHD spleen cells are mostly donor cells). Sera were collected to measure serum level of IgG1, IgG2a, and IgE by ELISA, and cytokine and chemokine levels using a commercially available kit (Luminex Corporation, Austin, Tex.).

P815 cells = test: CTL-specific lysis assay with splenocytes of GVHD mice; assay type: cell-based, mouse; conditions: splenocytes of treated animals versus PBS; calcein-labeled P815 targets
Method: Efficacy of IL-27 antagonists was assayed in a mouse model of acute graft-vs-host disease (Durie et al., J. Clin. Invest. 94:1333-1338, 1994). Parental mice (C57BL/6; n=12) were euthanized, and their spleens were collected. The pooled spleens were smashed using two glass slides to dissociate splenic cells. Lysis buffer was added to the splenocyte suspension to remove red blood cells. The cells were washed in RPMI 1640 (10% FBS) medium and resuspended in an appropriate amount of PBS to make a cell concentration of 300 million cells/ml. Protein treatments were administered by intraperitoneal injection every other day beginning on day-1 and continuing until day 15. Dexamethasone (DEX) was administered by injection daily on days 0 through 6. […] Mice were monitored 3 times a week for changes in body weight and any signs of moribundity. […] Spleens were collected, and a CTL-specific lysis assay using P815 cells was performed as a quantitative measurement of acute GVHD. […]
For CTL assay, P815 cells (a tumor cell line from mice with the same MHC class as DBA2) were labeled with calcein, then splenocytes from each experimental animal were added to the calcein-labeled P815 cells at effector (splenocytes):target (P815) ratios of 100:1, 33:1, and 10:1. Four hours after incubation at 37° C., supernatants were collected and fluorescence was measured (485 nm/535 nm).

For “human IL-27RA-Fc5: human IL27RA extracellular domain (amino acids 1 to 512 of SEQ ID NO:5) fused to Fc5, effector minus human gamma1 Fc; SEQ ID NO:3”, the ka [1] was 1e+07 M⁻¹ s⁻¹, the kd [1] was 0.0019 s⁻¹ and the colon length shortening ([2]; mouse, in vivo) was “did prevent colon length shortening”. For the same substance, the splenomegaly ([2]; mouse, in vivo) was “did not prevent splenomegaly”, the “maintenance of host spleen cells, CD4+ T cells, and Treg cells” value ([2]; proteins 100 µl of 1 mg/ml IP every other day, day -1 to 15, DEX daily days 0-6, day 18) was “maintained host spleen cells, CD4+ T cells, and Treg cells” and the Body weight loss ([2]; versus PBS controls) was “not severe and was significantly less than in PBS controls”. The CTL activity (P815 cells) was “reduced CTL activity compared to PBS”.
